Test results taken from patent publication US7199286B2, “Plant-derived novel pathogen and SAR-induction chemical induced promoters, and fragments thereof” (Syngenta Participations AG, priority 1999, dated 2007).

How the values were obtained:
Type in all cases: in vivo, Arabidopsis
[1] = tested on: NI16 promoter fragment 962 bp; assay: GUS florescence assay of promoter::GUS plants after SA application, NI16 962 bp fragment; conditions: 5 mM SA spray
Text: (§1) A binary promoter::reporter plasmid (pNOV2374) for Arabidopsis transformation was constructed. The regulatory/promoter sequence was fused to the GUS reporter gene (Jefferson et al. (1987) EMBO J 6: 3901-3907) by recombination using […] Technology according to the manufacturer's protocol as described in the Instruction Manual (LifeTechnologies, Rockville, Md.). The construct was then transformed into Agrobacterium tumefaciens strains by electroporation. pNOV2374 is a binary vector with a VS1 origin of replication, a copy of the Agrobacterium virg gene in the backbone, and a Basta® resistance selectable marker cassette between the left and right border sequences of the T-DNA. The Basta® selectable marker cassette comprises the Agrobacterium tumefaciens manopine synthase promoter (AtMas) (Barker et al., Plant Mol. Biol. 2, 335-350 (1983)) operably linked to the gene encoding Basta® resistance (i.e., the “BAR” gene, phosphinothricin acetyl transferase) (White et al., Nucl Acids Res 18: 1062 (1990)) and the 35S terminator. The AtMas promoter, the BAR coding sequence, and the 35S terminator are located at nt 4211 to nt 4679, nt 4680 to nt 5228, and nt 5263 to nt 5488, respectively, of pNOV2374. The vector contains […] recombination components, which were introduced into the binary vector backbone by ligating a blunt-ended cassette containing attR sites, ccdB, and a cholramphenicol resistance marker using the […] Vector Conversion System (LifeTechnologies, Rockville, Md.). The […] cassette was located between nt 126 and 1818 of pNOV2374. The promoter cassettes were inserted through an LR recombination reaction whereby the DNA sequence of pNOV2374 between nt 126 and nt 1818 were removed and replaced with the promoter of interest flanked by att sequences. […] The GIG gene (SEQ ID NO:29) contains the ST-LS1 intron from Solanum tuberosum at nt 385 to nt 576 of GUS (obtained from Dr. Stanton […], Purdue University, and described in Narasimhulu, et al. (1996) Plant Cell 8: 873-886.). […] The treatment was applied as a fine mist to the leaves. […] For quantitative analysis of promoter activity following induction treatments or in various Arabidopsis tissues and organs, GUS expression is measured florometrically. Tissue samples were harvested and ground in ice cold GUS extraction buffer (50 mM Na2HPO4 pH 7.0, 5 mM DTT, 1 mM Na2EDTA, 0.1% TritonX100, 0.1% sarcosyl). Ground samples were spun in a microfuge at 10,000 rpm for 15 minutes at 4° C. Following centrifugation, the supernatant was removed for the GUS assay and for a protein concentration determination. To measure GUS activity, the plant extract was assayed in GUS assay buffer (50 mM Na2HPO4 pH 7.0, 5 mM DTT, 1 mM Na2EDTA, 0.1% TritonX100, 0.1% sarcosyl, 1 mM 4-Methylumbelliferyl-beta-D-glucuronic acid dihydrate (MUG)), pre-warmed to 37° C. Reactions were incubated, and 100 uL aliquots were removed at 10 minute intervals over 30 minutes to stop the reaction by adding the 100 uL aliquots to tubes containing 900 uL of 2% Na2CO3. The stopped reactions were then read on a Tecan Spectroflourometer at 365 nm excitation and 455 emission wavelengths. Protein concentrations were determined using the BCA assay following the manufacturer's protocol. GUS activity is expressed as pmol MU/mg protein/min.

NI16 RNA = assay: Induction of NI16 mRNA by SA and BTH spray, RNA blot hybridization; conditions: WS-O plants sprayed with 5 mM SA or 300 μm BTH
Experimental: RNA is prepared from 4 week old Wassilewskija (WS—O) plants, that are either sprayed with water, a 5 mM solution of sodium salicylate (SA), or a 300 μm solution of benzo-(1,2,3)-thiadiazole-7-carbothioic acid S-methyl ester (BTH). […] RNA extractions and RNA blot hybridizations are performed as described previously by Ausubel et al. (1987). NI16 RNA is induced 5–10 fold within 15 minutes of SA or BTH induction and reaches a peak of approximately 50 fold induction within 2 hours of SA treatment and 25 fold induction with BTH treatment.

[2] = tested on: NI16 promoter fragment 274 bp; assay: GUS florescence assay of promoter::GUS plants after SA application, NI16 274 bp fragment; conditions: 5 mM SA spray
Text: as §1

O=C(O)c1ccccc1O [SA, salicylic acid]
GUS Activity Induced by SA ([1]; 2 h): 86.8 pmol/mg protein/min | GUS activity Fold-change relative to T0 (uninduced) ([1]; 2 h): 2.2 fold | GUS Activity Induced by SA ([1]; 4 h): 260.8 pmol/mg protein/min | GUS activity Fold-change relative to T0 (uninduced) ([1]; 4 h): 6.6 fold | GUS Activity Induced by SA ([1]; 8 h): 467.7 pmol/mg protein/min | GUS Activity Induced by SA ([1]; 24 h): 1457.5 pmol/mg protein/min | GUS activity Fold-change relative to T0 (uninduced) ([1]; 24 h): 36.7 fold | time NI16 transcript remains highly induced after treatment (NI16 RNA): up to 24 hours | NI16 RNA peak induction (NI16 RNA; peak, within 2 hours of SA treatment): approximately 50 fold | GUS Activity Induced by SA ([2]; 2 h): 27.5 pmol/mg protein/min | GUS activity Fold-change relative to T0 (uninduced) ([2]; 2 h): 1.4 fold | GUS Activity Induced by SA ([2]; 4 h): 58.7 pmol/mg protein/min | GUS activity Fold-change relative to T0 (uninduced) ([2]; 4 h): 3.0 fold | GUS Activity Induced by SA ([2]; 8 h): 150.8 pmol/mg protein/min | GUS activity Fold-change relative to T0 (uninduced) ([2]; 8 h): 7.8 fold | GUS Activity Induced by SA ([2]; 24 h): 230.3 pmol/mg protein/min
